In ChEMBL document CHEMBL1201862, “PubChem BioAssay data set” (2004):
Activity calls are given as the source filed them.

Tests used:
[1] = molecular target: Glucose-6-phosphate 1-dehydrogenase (Homo sapiens, UniProt P11413); experiment: human G6PD enzyme inhibitors, dose response, selectivity assay for P. falciparum G6PD inhibitor project, biochemical, fluorescence (AID 504792); format: functional
Keap1/Nrf2 = Keap1/Nrf2 (Homo sapiens, UniProt Q14145); experiment: Keap1-Nrf2 protein-protein interaction inhibitors, dose response, biochemical, fluorescence polarization, cherry-picked samples (AID 588683)
[2] = molecular target: T1, Rac GTPase-activating protein 1 (Homo sapiens, UniProt Q9H0H5); experiment: MgcRacGAP GTPase-activating activity inhibitors, confirmation, biochemical, ADP Hunter fluorescence, primary and confirmatory (AID 624330); format: functional
T1 sequence (Q9H0H5 whole entry): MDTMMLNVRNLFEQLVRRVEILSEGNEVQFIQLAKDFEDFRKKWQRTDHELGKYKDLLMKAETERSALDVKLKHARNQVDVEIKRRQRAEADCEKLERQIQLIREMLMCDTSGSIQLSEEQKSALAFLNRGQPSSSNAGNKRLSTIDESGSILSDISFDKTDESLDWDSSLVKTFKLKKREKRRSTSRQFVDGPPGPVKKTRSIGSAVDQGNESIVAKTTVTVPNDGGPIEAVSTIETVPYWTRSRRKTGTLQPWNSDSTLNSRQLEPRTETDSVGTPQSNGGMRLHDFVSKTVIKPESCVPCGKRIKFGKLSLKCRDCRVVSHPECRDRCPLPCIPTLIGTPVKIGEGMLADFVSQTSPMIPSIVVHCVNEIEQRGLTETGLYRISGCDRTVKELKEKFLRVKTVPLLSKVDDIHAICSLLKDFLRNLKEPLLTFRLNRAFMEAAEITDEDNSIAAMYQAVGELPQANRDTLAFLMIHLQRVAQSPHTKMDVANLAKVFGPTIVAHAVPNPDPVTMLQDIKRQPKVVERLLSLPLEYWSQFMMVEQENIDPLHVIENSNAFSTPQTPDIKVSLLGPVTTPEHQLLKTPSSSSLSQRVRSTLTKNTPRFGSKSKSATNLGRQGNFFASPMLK

[3] = molecular target: T2, Corticotropin-releasing factor receptor 2/Corticotropin-releasing factor-binding protein (Homo sapiens, UniProt P24387+Q13324); experiment: activators of CRF receptor 2 with binding protein – uHTS hits, confirmation (AID 602473); format: functional; settings: read-out: EC50_Mean
T2 sequence (Q13324 whole entry): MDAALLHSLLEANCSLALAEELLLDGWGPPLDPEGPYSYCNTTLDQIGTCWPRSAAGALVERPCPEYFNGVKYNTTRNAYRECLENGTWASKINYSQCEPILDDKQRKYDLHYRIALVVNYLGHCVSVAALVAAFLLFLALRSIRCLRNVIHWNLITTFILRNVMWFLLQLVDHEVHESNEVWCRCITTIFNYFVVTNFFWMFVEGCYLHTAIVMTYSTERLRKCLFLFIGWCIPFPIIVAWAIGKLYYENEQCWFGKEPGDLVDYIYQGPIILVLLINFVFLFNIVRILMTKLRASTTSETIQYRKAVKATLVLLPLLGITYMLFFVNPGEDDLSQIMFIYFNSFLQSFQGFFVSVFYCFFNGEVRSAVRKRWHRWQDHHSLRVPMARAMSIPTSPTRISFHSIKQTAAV
T2 sequence (P24387 whole entry): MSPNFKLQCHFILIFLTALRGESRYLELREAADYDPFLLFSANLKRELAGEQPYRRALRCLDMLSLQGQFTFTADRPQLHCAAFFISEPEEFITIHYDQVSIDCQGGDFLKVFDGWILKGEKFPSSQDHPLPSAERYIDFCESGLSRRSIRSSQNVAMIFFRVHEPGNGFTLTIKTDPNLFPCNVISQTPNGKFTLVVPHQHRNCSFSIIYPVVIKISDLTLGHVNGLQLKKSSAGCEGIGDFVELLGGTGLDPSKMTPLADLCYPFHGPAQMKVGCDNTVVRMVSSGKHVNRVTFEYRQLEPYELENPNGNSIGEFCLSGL

Escherichia coli [4] = experiment: microbe, parasite or virus in culture
HeLa = experiment: HeLa cell cytotoxicity, dose response, cytotoxicity control for MITF activator project, CellTiter-Glo luminescence, cherry-pick samples (AID 540259); format: functional, cell-based; settings: Homo sapiens
Escherichia coli [5] = experiment: microbe, parasite or virus in culture; remark: listed apart in the source
[6] = molecular target: T3, Nuclear receptor subfamily 0 group B member 1 (Homo sapiens, UniProt P51843); experiment: Luminescence-based cell-based high throughput dose response assay for inhibitors of the orphan nuclear receptor subfamily 0, group B, member 1 (DAX1; NR0B1). [Related pubchem assays (depositor defined):AID504766, AID504790]; format: functional
T3 sequence (P51843 whole entry): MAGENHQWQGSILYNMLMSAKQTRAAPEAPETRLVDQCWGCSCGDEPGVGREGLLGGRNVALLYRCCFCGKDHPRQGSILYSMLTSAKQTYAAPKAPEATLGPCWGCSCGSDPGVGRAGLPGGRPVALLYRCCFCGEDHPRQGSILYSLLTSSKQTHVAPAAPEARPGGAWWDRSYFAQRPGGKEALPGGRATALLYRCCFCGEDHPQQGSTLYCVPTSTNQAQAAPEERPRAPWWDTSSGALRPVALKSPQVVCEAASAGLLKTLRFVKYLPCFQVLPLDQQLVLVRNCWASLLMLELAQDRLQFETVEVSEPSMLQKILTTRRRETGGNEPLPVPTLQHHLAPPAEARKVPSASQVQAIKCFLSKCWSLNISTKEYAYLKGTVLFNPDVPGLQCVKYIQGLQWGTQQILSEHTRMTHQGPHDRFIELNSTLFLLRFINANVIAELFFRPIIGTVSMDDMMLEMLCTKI

[7] = NIH-3T3 fibroblast cytotoxicity, dose response, cytotoxicity control, cell-based, fluorescence, Alamar Blue, secondary assay (AID 2327); format: functional;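 note: NIH-3T3 mouse fibroblasts cultured with fluconazole at 8 µg/mL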
HEK293 = experiment: cells; format: functional, cell-based; settings: Homo sapiens
CHO = experiment: cytotoxicity in TLR9-MyD88 CHO cells, dose response, cytotoxicity control for TLR9-MyD88 binding inhibitor project, cell-based, luminescence (AID 588339); format: functional, hamster; settings: Cricetulus griseus;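 note: CHO cells stably coexpressing TLR9 and MyD88 fusions from primary screen; compound exposure lasted 48 hours before viability readout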
Beta Lactamase = Beta Lactamase (Pseudomonas aeruginosa, UniProt Q932Y6); experiment: beta-lactamase reporter inhibitor potency, dose response, artefact control for TLR9-MyD88 binding inhibitor project, BLA reporter cells, FRET fluorescence (AID 588341); format: cell-based;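 note: cell based assay in CHO-K1 cells stably expressing beta-lactamase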
[8] = molecular target: Dual specificity tyrosine-phosphorylation-regulated kinase 1A (Rattus norvegicus, UniProt Q63470); format: biochemical, Homo sapiens
[9] = molecular target: Beta-2 adrenergic receptor (Homo sapiens, UniProt P07550); experiment: beta2AR agonists driving receptor internalization, dose response, cell-based, FAP fluorogen, flow cytometry, cherry pick 1 (AID 588763); format: functional
[10] = molecular target: T4, Polyadenylate-binding protein 1 (Homo sapiens, UniProt P11940); experiment: PABP1 MLLE–PAM2 binding inhibitor potency, dose response, biochemical, fluorescence polarization, FITC-PAM2 peptide (AID 602259); format: functional; settings: read-out: IC50_Mean
[11] = molecular target: T4, Polyadenylate-binding protein 1; experiment: PABP1 MLLE–PAM2 interaction inhibitors, dose response, miRNA deadenylation inhibitor project, biochemical, fluorescence polarization, Cy5-PAM2 peptide, secondary (AID 602260); format: functional; settings: read-out: IC50_Mean
Large T antigen = Large T antigen (Simian virus 40, UniProt P03070); format: functional, Betapolyomavirus macacae;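 note: Confirmatory-stage PubChem screen for compounds that inhibit SV40 T antigen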
[12] = Luminescence Cell-Based Dose Response HTS to Identify Activators of Luciferase Translation or Activity in H4 […] Cells. [Related pubchem assays: 1829 (Project Summary), 1814 (Primary HTS)]; format: functional
INS1 = experiment: beta cell apoptosis inhibitors, cytokine rescue, dose response, luminescence, retest (AID 449756); format: functional, cell-based; settings: Rattus norvegicus;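 note: cell death triggered by IL-1 beta plus TNF-alpha plus IFN-gamma mixture; protective hits raise ATP signal compared with cytokine alone wells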
Vero = Vero cell cytotoxicity, cytotoxicity control for flavivirus capping enzyme inhibitors (AID 588742); format: functional; settings: Chlorocebus sabaeus
[13] = Luminescence Cell-Based Dose Confirmation HTS to Identify Activators of 5'UTR Stem-Loop Driven Alpha-Synuclein mRNA Translation in H4 Neuroglioblastoma Cells. [Related pubchem assays: 1829 (Project Summary), 1814 (Primary HTS)]; format: functional
Genome polyprotein = Genome polyprotein (dengue virus type 2, UniProt P29990); experiment: Dengue-2 NS5 methyltransferase inhibitors, primary screen, biochemical, confirmation dose response (AID 588689); format: functional
H4 = experiment: Luminescence Cell-Based Dose Response HTS to Identify Activators of 5'UTR Stem-Loop Driven Prion Protein mRNA Translation in H4 Neuroglioblastoma Cells. [Related pubchem assays: 1829 (Project Summary), 1814 (Primary HTS)]; format: functional; settings: Homo sapiens
H9c2 = experiment: cells; format: functional, cell-based; settings: Rattus norvegicus, H9c2, Myocardium
[14] = molecular target: T5, Ubiquitin-conjugating enzyme E2 N (Homo sapiens, UniProt P61088); format: functional;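 note: Dose-response confirmation in a TR-FRET assay detecting UBC13-driven polyubiquitin chain formation, inhibition measured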
T5 sequence (P61088 whole entry): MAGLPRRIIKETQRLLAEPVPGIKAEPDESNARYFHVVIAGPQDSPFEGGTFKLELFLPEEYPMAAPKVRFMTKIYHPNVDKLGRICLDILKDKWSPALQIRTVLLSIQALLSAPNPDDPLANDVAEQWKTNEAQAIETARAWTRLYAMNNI

Chain of Beta Lactamase (Q932Y6 whole entry): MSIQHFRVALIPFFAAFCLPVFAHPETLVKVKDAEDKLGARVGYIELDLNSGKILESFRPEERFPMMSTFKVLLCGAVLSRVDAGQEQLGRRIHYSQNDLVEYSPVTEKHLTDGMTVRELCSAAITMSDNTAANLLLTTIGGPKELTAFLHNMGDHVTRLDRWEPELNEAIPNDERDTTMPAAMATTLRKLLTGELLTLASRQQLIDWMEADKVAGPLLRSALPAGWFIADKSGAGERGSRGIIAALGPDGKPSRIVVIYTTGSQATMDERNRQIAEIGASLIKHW
Chain of Beta-2 adrenergic receptor (P07550 whole entry): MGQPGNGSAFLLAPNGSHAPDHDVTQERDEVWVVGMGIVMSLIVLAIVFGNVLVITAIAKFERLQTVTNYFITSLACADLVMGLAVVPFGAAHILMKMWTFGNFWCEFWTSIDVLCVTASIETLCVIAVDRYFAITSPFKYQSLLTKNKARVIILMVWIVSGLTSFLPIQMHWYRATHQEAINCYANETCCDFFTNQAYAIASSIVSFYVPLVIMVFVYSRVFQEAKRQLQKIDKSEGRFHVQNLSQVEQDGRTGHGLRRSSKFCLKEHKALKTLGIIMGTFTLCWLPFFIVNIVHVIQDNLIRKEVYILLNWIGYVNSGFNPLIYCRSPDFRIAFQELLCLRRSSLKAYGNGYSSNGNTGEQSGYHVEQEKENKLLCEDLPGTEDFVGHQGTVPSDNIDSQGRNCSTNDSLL
T4 sequence (P11940 whole entry): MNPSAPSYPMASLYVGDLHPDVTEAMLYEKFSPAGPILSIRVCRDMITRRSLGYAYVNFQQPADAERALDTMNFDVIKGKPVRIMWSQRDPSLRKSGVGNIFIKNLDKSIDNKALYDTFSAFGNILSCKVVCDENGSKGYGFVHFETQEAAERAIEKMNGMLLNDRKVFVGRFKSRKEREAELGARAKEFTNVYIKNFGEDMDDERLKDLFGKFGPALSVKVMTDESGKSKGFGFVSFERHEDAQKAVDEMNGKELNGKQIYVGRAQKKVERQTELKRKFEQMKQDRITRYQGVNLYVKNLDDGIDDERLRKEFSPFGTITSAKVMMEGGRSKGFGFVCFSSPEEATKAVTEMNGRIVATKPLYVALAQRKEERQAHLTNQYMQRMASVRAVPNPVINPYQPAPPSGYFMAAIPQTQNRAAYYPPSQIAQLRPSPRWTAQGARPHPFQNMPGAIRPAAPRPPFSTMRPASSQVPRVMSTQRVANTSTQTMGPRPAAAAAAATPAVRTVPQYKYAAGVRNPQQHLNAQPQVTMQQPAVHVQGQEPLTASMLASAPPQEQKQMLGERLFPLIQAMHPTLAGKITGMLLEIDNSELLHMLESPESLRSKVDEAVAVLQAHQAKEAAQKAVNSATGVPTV
Chain of Large T antigen (P03070 whole entry): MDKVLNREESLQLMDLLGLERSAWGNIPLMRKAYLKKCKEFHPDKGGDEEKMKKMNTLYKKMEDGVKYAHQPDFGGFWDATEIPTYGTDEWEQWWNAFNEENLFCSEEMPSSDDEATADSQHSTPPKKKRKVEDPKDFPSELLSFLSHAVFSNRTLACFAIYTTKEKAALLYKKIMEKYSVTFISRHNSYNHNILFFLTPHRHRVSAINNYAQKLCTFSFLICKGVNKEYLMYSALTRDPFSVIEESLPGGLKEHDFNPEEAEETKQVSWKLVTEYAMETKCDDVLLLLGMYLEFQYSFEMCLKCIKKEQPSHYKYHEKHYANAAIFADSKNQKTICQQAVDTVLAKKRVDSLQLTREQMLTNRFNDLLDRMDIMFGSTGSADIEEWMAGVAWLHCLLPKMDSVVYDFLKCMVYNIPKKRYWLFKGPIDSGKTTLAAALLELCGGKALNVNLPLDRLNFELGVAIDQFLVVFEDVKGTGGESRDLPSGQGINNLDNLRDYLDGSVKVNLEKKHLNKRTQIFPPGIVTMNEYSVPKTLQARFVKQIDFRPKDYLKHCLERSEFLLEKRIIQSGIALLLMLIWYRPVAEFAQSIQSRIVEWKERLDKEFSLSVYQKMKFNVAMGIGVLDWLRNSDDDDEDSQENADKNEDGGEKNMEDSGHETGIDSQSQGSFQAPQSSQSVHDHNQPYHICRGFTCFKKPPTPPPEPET
Chain of Glucose-6-phosphate 1-dehydrogenase (P11413 whole entry): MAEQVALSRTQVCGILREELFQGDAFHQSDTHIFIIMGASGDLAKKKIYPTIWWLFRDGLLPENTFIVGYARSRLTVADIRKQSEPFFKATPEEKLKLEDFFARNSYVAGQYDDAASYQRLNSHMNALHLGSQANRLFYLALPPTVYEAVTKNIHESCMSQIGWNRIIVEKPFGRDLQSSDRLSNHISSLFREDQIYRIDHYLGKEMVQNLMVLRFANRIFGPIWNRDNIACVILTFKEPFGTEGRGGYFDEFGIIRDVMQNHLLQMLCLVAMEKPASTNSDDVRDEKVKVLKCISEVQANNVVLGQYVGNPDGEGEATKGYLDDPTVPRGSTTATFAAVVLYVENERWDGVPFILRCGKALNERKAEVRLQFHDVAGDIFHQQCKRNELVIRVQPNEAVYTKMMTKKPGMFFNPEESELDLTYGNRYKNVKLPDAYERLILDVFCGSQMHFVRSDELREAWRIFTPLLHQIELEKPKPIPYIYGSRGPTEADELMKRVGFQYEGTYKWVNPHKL
Chain of Genome polyprotein (P29990 2492-3391 limits assumed): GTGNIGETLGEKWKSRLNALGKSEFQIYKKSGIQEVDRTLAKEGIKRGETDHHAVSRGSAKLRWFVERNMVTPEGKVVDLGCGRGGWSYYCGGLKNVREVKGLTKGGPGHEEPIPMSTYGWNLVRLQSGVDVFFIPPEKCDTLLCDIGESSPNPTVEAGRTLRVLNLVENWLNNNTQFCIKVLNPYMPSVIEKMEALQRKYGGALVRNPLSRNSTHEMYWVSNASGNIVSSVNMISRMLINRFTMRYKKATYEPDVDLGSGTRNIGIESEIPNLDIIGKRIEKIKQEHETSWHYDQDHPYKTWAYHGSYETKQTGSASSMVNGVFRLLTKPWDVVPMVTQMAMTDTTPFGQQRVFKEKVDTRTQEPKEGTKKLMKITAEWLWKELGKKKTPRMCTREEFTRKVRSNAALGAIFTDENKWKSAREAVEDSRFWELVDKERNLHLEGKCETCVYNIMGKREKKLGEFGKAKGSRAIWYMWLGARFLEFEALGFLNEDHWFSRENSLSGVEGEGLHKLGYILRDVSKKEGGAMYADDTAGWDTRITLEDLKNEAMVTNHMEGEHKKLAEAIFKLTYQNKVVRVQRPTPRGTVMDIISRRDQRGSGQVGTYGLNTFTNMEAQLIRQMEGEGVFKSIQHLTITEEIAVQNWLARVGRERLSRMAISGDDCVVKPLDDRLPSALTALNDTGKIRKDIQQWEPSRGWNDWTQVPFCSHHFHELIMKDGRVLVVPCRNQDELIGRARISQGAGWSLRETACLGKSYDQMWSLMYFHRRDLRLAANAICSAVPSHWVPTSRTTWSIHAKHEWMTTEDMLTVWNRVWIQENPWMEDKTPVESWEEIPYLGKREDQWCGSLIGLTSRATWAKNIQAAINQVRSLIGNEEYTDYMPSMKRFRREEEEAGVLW
Chain of Keap1/Nrf2 (Q16236 whole entry): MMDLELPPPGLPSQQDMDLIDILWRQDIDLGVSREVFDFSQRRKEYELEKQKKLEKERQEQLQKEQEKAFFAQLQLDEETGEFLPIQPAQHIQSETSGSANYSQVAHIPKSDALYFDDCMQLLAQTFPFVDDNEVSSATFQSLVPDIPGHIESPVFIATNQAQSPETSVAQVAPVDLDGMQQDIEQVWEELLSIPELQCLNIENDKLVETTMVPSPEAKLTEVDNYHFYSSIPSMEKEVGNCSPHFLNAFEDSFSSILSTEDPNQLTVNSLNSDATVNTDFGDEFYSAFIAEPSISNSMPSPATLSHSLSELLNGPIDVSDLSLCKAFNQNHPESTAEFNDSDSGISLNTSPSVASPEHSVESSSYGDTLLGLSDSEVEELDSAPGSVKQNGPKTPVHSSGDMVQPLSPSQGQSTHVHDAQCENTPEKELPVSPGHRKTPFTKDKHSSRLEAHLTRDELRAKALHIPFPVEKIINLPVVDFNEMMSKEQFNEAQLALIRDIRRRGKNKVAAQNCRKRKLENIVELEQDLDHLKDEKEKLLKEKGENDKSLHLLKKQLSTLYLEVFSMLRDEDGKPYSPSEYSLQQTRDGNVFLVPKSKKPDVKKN
Chain of Keap1/Nrf2 (Q14145 whole entry): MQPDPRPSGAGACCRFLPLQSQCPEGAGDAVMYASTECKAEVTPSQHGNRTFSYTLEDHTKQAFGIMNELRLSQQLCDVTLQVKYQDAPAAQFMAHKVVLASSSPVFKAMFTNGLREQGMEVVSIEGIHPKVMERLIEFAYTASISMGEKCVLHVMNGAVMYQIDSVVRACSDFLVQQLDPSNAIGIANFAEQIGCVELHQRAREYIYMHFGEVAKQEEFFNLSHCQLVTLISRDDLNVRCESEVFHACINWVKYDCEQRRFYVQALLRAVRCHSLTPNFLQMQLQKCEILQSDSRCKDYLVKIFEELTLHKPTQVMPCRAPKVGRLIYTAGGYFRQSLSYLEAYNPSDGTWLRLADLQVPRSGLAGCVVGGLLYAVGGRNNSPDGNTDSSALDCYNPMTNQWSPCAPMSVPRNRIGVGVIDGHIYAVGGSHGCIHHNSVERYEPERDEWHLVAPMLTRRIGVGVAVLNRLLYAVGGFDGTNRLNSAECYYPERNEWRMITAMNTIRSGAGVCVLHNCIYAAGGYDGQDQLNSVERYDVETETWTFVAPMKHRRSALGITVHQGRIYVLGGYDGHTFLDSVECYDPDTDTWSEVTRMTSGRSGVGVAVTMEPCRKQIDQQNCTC

## Nc1ccc2c3c(cccc13)-c1ccccc1-2
[1]
  IC50: > 80 µM (inactive)
Keap1/Nrf2
  AC50: 2.01 µM (active)
[2]
  IC50: 39.2 µM (active)
[3]
  EC50: 4.79 µM (active)

## CCCCCN(C(=O)CCC(=O)OCC(=O)N(C)Cc1ccc(C)cc1)c1c(N)n(CCCC)c(=O)[nH]c1=O
Escherichia coli [4]
  AC50: > 380 µM (inactive)

## C/C(Cl)=C/CSc1nn2c(=O)c3ccccc3nc2s1
HeLa
  AC50: 36.3 µM (active)

## COc1ccccc1Nc1nc(C)cs1
Escherichia coli [5]
  AC50: 26.8 µM (active)
Escherichia coli [4]
  AC50: 60.7 µM (active)

## CCc1nc(NC(C)(C)C)c2cnn(-c3ccccc3)c2n1
HeLa
  AC50: 134 µM (active)

## c1cnc(SCCOc2ccc3c(c2)CCC3)nc1
[6]
  IC50: > 67.6 µM (inactive)
[7]
  EC50: > 160 µM (inactive)
HEK293
  IC50: > 67.6 µM (inactive)

## Brc1cc(Br)c2nc(-c3ccc(N4CCOCC4)cc3)ccc2c1
CHO
  IC50: > 49.8 µM (inactive)
Beta Lactamase
  IC50: 2.37 µM (active)

## N#C/C(=C\c1cn[nH]c1-c1ccc(Cl)cc1)C(=O)NCc1ccccc1
Escherichia coli [5]
  AC50: 12.4 µM (active)
Escherichia coli [4]
  AC50: 300 µM (active)

## Oc1ccc(Nc2nc(-c3ccccc3)nc3ccccc23)cc1
[8]
  AC50: 0.461 µM (active)

## NC(=O)CC(NC(=O)c1cccc(Br)c1)c1ccc(N2CCN(c3ccccn3)CC2)c([N+](=O)[O-])c1 (centres undefined)
[9]
  EC50: 0.225 µM (active)
[8]
  AC50: 66.8 µM (active)

## Oc1cccc(NC(=S)N=Nc2c(O)[nH]c3ccccc23)c1
[10]
  IC50: > 66 µM (inactive)
[8]
  AC50: 12.4 µM (active)
[11]
  IC50: > 66 µM (inactive)

## CN(C(=O)c1cc2sccc2n1C)C1CCCCC1
HeLa
  AC50: 218 µM (active)

## CCN(CC)c1ccc(-c2nc3cnccn3c2NC2CCCC2)cc1
Large T antigen
  IC50: 21.9 µM (active)
CHO
  IC50: > 16.6 µM (inactive)
Beta Lactamase
  IC50: 5.29 µM (active)

## COC(=O)/C(=C1\Oc2ccc(C(C)(C)C)cc2S1)C(F)(F)F
HeLa
  AC50: 57.7 µM (active)

## O=C1NC(=O)C2C1C(c1ccc([N+](=O)[O-])cc1)=NN2Cc1ccccc1 (centres undefined)
CHO
  IC50: > 49.8 µM (inactive)
Beta Lactamase
  IC50: 10.3 µM (inactive)

## NC(=O)CC(NC(=O)c1ccc(Br)cc1)c1ccc(N2CCN(c3ccccn3)CC2)c([N+](=O)[O-])c1 (centres undefined)
[9]
  EC50: 0.213 µM (active)

## CC(=O)c1csc(Nc2ccccc2Cl)n1
[6]
  IC50: > 67.6 µM (inactive)
HEK293
  IC50: > 67.6 µM (inactive)

## O=[N+]([O-])c1ccc(-[n+]2ccc3ccccc3c2)c([N+](=O)[O-])c1
Large T antigen
  IC50: 79.1 µM (active)
[12]
  EC50: 11.4 µM (active)
[1]
  IC50: > 80 µM (inactive)
INS1
  AC50: 3.36 µM (active)
[9]
  EC50: 10.2 µM (inactive)
Vero
  CC50: 24.9 µM (active)
[13]
  EC50: > 120 µM (not active)
Genome polyprotein
  IC50: > 100 µM (active)
H4
  EC50: > 120 µM (not active)

## CC(=O)Nc1ccc(S(=O)(=O)N(Cc2cccnc2)Cc2cc3ccccc3nc2O)cc1
[9]
  EC50: 0.801 µM (active)
H9c2
  IC50: > 79 µM (inactive)

## COC(=O)c1c(-c2ccc(S(C)(=O)=O)cc2)sc2ccc(OC)cc12
[14]
  IC50: > 20 µM (inactive)
HeLa
  AC50: 28 µM (active)

## CC(=O)NC(Cc1c[nH]c2ccccc12)C(=O)O (centres undefined)
[6]
  IC50: > 67.6 µM (inactive)
HEK293
  IC50: > 67.6 µM (inactive)

## Cc1cc(C)c2c(N)c(C(=O)N/N=C/c3ccccc3)sc2n1
[6]
  IC50: > 67.5 µM (inactive)
HEK293
  IC50: > 67.5 µM (inactive)

## O=C(O)c1ccc(/C=N/Nc2nc3ccccc3[nH]2)cc1
[6]
  IC50: > 67.6 µM (inactive)
HEK293
  IC50: > 67.6 µM (inactive)

## COc1ccc(C(=O)/C=C/c2ccc(N(C)C)cc2)c(OC)c1
CHO
  IC50: > 49.8 µM (inactive)
Beta Lactamase
  IC50: 4.71 µM (active)

## CS(=O)(=O)c1ccc([C@@H](O)[C@@H](CF)NC(=O)C(Cl)Cl)cc1 [FLORFENICOL]
Escherichia coli [4]
  AC50: 3.83 µM (active)
